Experimental data from US10603335B2, “Cancer treatment combination compositions, methods and uses” (Board of Supervisors of Louisiana State University and …, priority 2016, dated 2020).

Columns and labels:
Format in all cases: cell-based
[1] = tested on: LHRHR knock-down (KD) Panc-1 spheroides; experiment: 3D spheroid growth, LHRHR knock-down (KD) Panc-1; details: LHRHR KD Panc-1; 30 μM
[2] = tested on: XIAP, cIAP1 and cIAP2 mRNA in Panc-1 cells; experiment: Quantitative PCR of inhibitors of apoptosis, Panc-1; details: 50 uM, 24 h post-treatment, relative to DMSO, GAPDH reference
Experimental: mRNA levels of XIAP, c-IAP1 and c-IAP2 were determined by quantitative real-time PCR using the SYBR Green Real-Time PCR Master Mix form ThermoFisher. Thermal cycling was carried out using the CFX system from BioRad under the following conditions: 95° C. for 10 min and 40 cycles at 95° C. for 15 s and 55° C. for 60 s. mRNA expression for any given gene is represented as comparative to the DMSO-treated cells. GAPDH was used as the housekeeping gene of reference.
GAPDH was used as a reference. Results presented in FIG. 12A (XIAP relative mRNA levels), FIG. 12B (cIAP1 relative mRNA levels), FIG. 12C (cIAP2 relative mRNA levels).

PDAC PDXs tissue slices = experiment: Live Tissue Sensitivity Assay (LTSA), panel of PDAC PDXs; details: 16 PDAC PDXs tested; single agent
Experimental: (§1) Animal experiment protocol was reviewed and approved by The University of Texas MD Anderson Cancer Center (Houston, Tex.) institutional review board and in accordance with the Guidelines for the Care and Use of Laboratory Animals published by the National Institutes of Health. PDXs were grown from cryopreserved early passages of PDXs in nude mice as described in previous publications (Kim M P, et al, Nat Protoc 2009; 4(11): 1670-80). Briefly, tumor samples stored in CryoStor™ CS10 storage medium were recovered and cut into about 2 mm3 fragments, soaked in Matrigel, and implanted into the subcutaneous space of Balb/c nude mice (5 mice/PDX). Tumors were harvested when they reach 1.5 cm in diameter for generating tissue slices for drug testing with quadruplicates.
(§2) About 100 tissue slices were produced from 1 tumorgraft with tissue slicer and arrayed in 96-well plates with previously established method (Roife D, et al, Clin Cancer Res 2016). […] Same volume of medium with 0.1% DMSO was added into control wells. After 72 hours, tissue viabilities were measured with PrestoBlue method. Viability inhibition will be calculated through normalization of viabilities of tissue slices treated with inhibitor against the viability of control (DMSO treated) slices. Inhibition of viability was further analyzed with t-test. […]

PATX213 tissue slices = experiment: Live Tissue Sensitivity Assay (LTSA), PATX213; details: single agent, 72 hours
Experimental: as §1, §2

PATX162 tissue slices = experiment: Live Tissue Sensitivity Assay (LTSA), PATX162; details: single agent, 72 hours
Experimental: as §1, §2

For COc1cc(/C=C/C(=O)CC(=O)/C=C/c2ccc(OC(=O)CCCC(=O)NCCCC[C@@H](NC(=O)[C@H](Cc3ccc(O)cc3)NC(=O)[C@H](CO)NC(=O)[C@H](Cc3c[nH]c4ccccc34)NC(=O)[C@H](Cc3c[nH]cn3)NC(=O)[C@@H]3CCC(=O)N3)C(=O)N[C@@H](CC(C)C)C(=O)N[C@@H](CCCNC(=N)N)C(=O)N3CCC[C@H]3C(=O)NCC(N)=O)c(OC)c2)ccc1O [LHRH-curcumin, [DLys6]-LHRH-Curcumin], the spheroids growth [1] was “still has an effect on spheroids growth formed by LHRHR KD cells, its effect was inferior to that of curcumin alone”, the “mRNA levels of XIAP, cIAP1 and c-IAP2” value [2] was “down-regulated” and the “number of PDXs sensitive” value (PDAC PDXs tissue slices) was 8. For the same compound, the “Sensitivity To LHRH-C” value (PATX213 tissue slices) was “Sensitive (The tissue was defined as sensitive to the treatment if both p<0.05 and at least 30% of tissue slice viability on average was inhibited)” and the “Sensitivity To LHRH-C” value (PATX162 tissue slices) was “Sensitive (The tissue was defined as sensitive to the treatment if both p<0.05 and at least 30% of tissue slice viability on average was inhibited)”.
